The source of these data is patent US20030206968A1, “Fungicidal mixtures” (priority 1999, published 2003).

Common to all, as to assay type: in vivo
One experiment concerns Botrytis cinerea. In words: Field test, Botrytis cinerea in vines. As to conditions: Example 33. On the procedure:
(§1) The trials are carried out under greenhouse (Examples 1 to 32) or field conditions (Examples 33 to 40) in residual or curative applications. The fungicides are applied in single treatments, or in a combination comprising an azolopyrimidine of formula I and a compound selected from the classes (A), (B) and (C) as defined above. The compounds are applied in form of an aqueous spray mix obtained from a concentrated formulation or the technical material.
(§2) For the field study formulated Azolopyrimidine A, B or C and formulated compounds from the classes (A), (B) and (C) were used.
(§3) Assessments of the diseases took place at the indicated day after the application of the compounds. Per cent infected leaf area infected was evaluated. The efficacy of the compounds/compounds mixtures to control the diseases was calculated by using the formula given above under item 4: […]
(§4) Synergy was calculated using the % disease control values of specific treatments for the two COLBY formula given hereinabove
The compounds are applied according to good agricultural practice in the form of an aqueous spray mix obtained from a concentrated formulation or the technical material at a rate of 400 l/ha. The disease control is evaluated according to the formula given for the greenhouse tests. […]

A further experiment relates to Pyrenophora teres. The experiment is described as follows: Greenhouse, Pyrenophora teres on barley, 1 day residual. As to conditions: Example 10. As for the experimental part: as §1
(§5) 1. Seed is planted in 6 cm diameter plastic pots and maintained in the greenhouse.
(§6) 2. When the primary leaf is fully expanded in the case of cereals or several leaves are present in the case of dicots, formulated test compounds are sprayed with a three nozzle overhead fungicide sprayer to near run-off. Alternatively, a single nozzle overhead track sprayer is used for application of the compounds to cereals at a rate of 200 l/ha. Plants are then allowed to air-dry.
(§7) 3. Inoculation precedes treatment in the case of curative evaluations and follows treatment in case of residual evaluations. For inoculation of powdery mildew disease, plants are set up on greenhouse benches with bottom watering mats and inoculated by dusting them with conidia from infected plants. Between inoculation and treatment for curative evaluations and between treatment and inoculation for residual evaluations, plants are maintained in the greenhouse with bottom watering.
(§8) For inoculation of non-powdery mildew diseases, an aqueous spore suspension of the pathogen is applied to the plant and the plants are kept 1-2 days in a moist infection chamber before being returned to the greenhouse where they are maintained by bottom watering.
(§9) 4. Disease on the foliage as percent leaf area with disease symptoms/signs is evaluated about 7 days after inoculation. In the case of wheat, the tips and bases of the leaves are excluded from the evaluation. [formula]
(§10) 1. Technical compounds are formulated in a solvent/surfactant system consisting of 5% acetone and 0.05% Tween 20 in deionized water. Compounds are dissolved in acetone prior to addition of the water; the Tween 20 can be added through either the acetone or the water. Dilutions are made using the solvent/surfactant system. Formulated compounds are prepared using deionized water.
(§11) 2. Two kinds of controls are included: Plants treated with the solvent/surfactant solution and inoculated (Solvent Blank). Untreated plants which are inoculated (Inoculated Control).
as §3, §4
Fungicidal efficacy of the mixture of Azolopyrimidine C+metconazole (1 day residual) against Pyrenophora teres on barley The tank mix was obtained from a SC formulation containing 100 g Azolopyrimidine C per liter and an EC containing 100 g metconazole per liter.

The test system of experiment [1] is Septoria tritici. The experiment is described as follows: Greenhouse, Septoria tritici on wheat, 1 day residual. As to conditions: Example 9. On the procedure: as §1, §5, §6, §7, §8, §9, §10, §11, §3, §4
Fungicidal efficacy of the mixture of Azolopyrimidine C+metconazole (1 day residual) against Septoria tritici on wheat The tank mix was obtained from a SC formulation containing 100 g Azoplopyrimidine C per liter and an EC containing 100 g metconazole per liter.

For experiment [2], the system named is Puccinia recondita. In words: Greenhouse, Puccinia recondita on wheat, 1 day residual. As to conditions: Puccinia recondita, Example 11, read-out: Observed Efficacy.
Excerpt: The fungicides are applied in single treatments, or in a combination comprising an azolopyrimidine of formula I and a compound selected from the classes (A), (B) and (C) as defined above. The compounds are applied in form of an aqueous spray mix obtained from a concentrated formulation or the technical material.
as §5, §6, §7, §8, §9, §10, §11, §3, §4
Fungicidal efficacy of the mixture of Azolopyrimidine C+metconazole (1 day residual) against Puccinia recondita on wheat The tank mix was obtained from a SC formulation containing 100 g Azolopyrimidine C per liter and an EC containing 100 g metconazole per liter. […]
Fungicidal efficacy of the mixture of Azolopyrimidine C+fluazinam (1 day residual) against Puccinia recondita on wheat The tank mix was obtained from technical material of Azolopyrimidine C and a SC formulation containing 500 g fluazinam per liter. […]

A further experiment relates to Rhynchosporium secalis. In words: Greenhouse, Rhynchosporium secalis on barley, 1 day residual. As to conditions: Example 8; dose rate 100 ppm. On the procedure: as §1, §5
2. When the primary leaf is fully expanded in the case of cereals or several leaves are present in the case of dicots, formulated test compounds are sprayed with a three nozzle overhead fungicide sprayer to near run-off. […]
4. Disease on the foliage as percent leaf area with disease symptoms/signs is evaluated about 7 days after inoculation. […]
as §3
Synergy was calculated using the % disease control values of specific treatments for the two COLBY formula given hereinabove […]

For experiment [3], the system named is Septoria tritici. The experiment is described as follows: Field test, Septoria tritici on wheat. As for the experimental part:
as §1, §2, §3, §4
(§12) The compounds are applied according to good agricultural practice in the form of an aqueous spray mix obtained from a concentrated formulation or the technical material at a rate of 400 l/ha. The disease control is evaluated according to the formula given for the greenhouse tests.
Fungicidal efficacy of the mixture of Azolopyrimidine C+metconazole in the field against Septoria tritici on wheat The tank mix was obtained from an EC formulation containing 150 g Azolopyrimidine C per liter and a SL formulation containing 60 g metconazole per liter. The observed and expected efficacies with different rates are given in Table XXXIVa (19 days after application) and Table XXXIVb (25 days after application):
Fungicidal efficacy of the mixture of (S)-Azolopyrimidine C+kresoxim methyl in the field against Septoria tritici on wheat The tank mix was obtained from a SC formulation containing 100 g (S)-Azolopyrimidine C per liter and a WG formulation containing 500 g kresoxim methyl per kg. The observed and expected efficacies with different rates are given in Tables XXXVa (7 days after application), XXXVb (22 days after application), XXXVc (34 days after application), and XXXVd (41 days after application):
Fungicidal efficacy of the mixture of Azolopyrimidine A and different cereal fungicides the field against Septoria tritici on wheat 15 days after application The tank mix was obtained from an SC formulation containing 100 g Azolopyrimidine A per liter and commercially available formulations of metconazole, epoxiconazole or propiconazole, respectively.

For experiment [4], the system named is Puccinia recondita. In words: Field test, Puccinia recondita on wheat. As to conditions: metconazole 45 g/ha alone, 50 days after application. As for the experimental part:
as §1, §2, §3, §4, §12
Fungicidal efficacy of the mixture of Azolopyrimidine A and different cereal fungicides in the field against Puccinia recondita on wheat 50 days after application The tank mix was obtained from an SC formulation containing 100 g Azolopyrimidine A per liter and commercially available formulations of metconazole, epoxiconazole, propiconazole or kresoxim methyl, respectively.

In a further experiment the test system is Blumeria graminis. In words: Field test, Blumeria graminis on wheat. As to conditions: metconazole 45 g/ha alone, 15 days after application. As for the experimental part: as §1, §2, §3, §4, §12
Fungicidal efficacy of the mixture of (S)-Azolopyrimidine C+cyproconazole in the field against Blumeria graminis on wheat 17 days after application The tank mix was obtained from a SC formulation containing 100 g (S)-Azolopyrimidine C per liter and an EC formulation containing 60 g cyproconazole per liter.
Fungicidal efficacy of the mixture of (S)-Azolopyrimidine C+azoxystrobin in the field against Blumeria graminis on wheat 17 days after application The tank mix was obtained from a SC formulation containing 100 g (S)-Azolopyrimidine C per liter and a SC formulation containing 250 g azoxystrobin per kg.
Fungicidal efficacy of the mixture of Azolopyrimidine A and different cereal fungicides in the field against Blumeria graminis on wheat 15 days after application The tank mix was obtained from an SC formulation containing 100 g Azolopyrimidine A per liter and commercially available formulations of metconazole, epoxiconazole or kresoxim methyl, respectively.

On to `Fc1cccc(Cl)c1-c1c(Cl)nc2ncnn2c1NCC(F)(F)F` [Azolopyrimidine B, 5-chloro-6-(2-chloro-6-fluorophenyl)-7-(2,2,2-trifluoroethylamino)-[1,2,4]triazolo[1,5-a]pyrimidine], for which, in the experiment on Botrytis cinerea (dose rate 250 g/ha), the “Observed Efficacy” value was 58%.
Consider `CC1(C)CCC(Cc2ccc(Cl)cc2)C1(O)Cn1cncn1` (stereo not shown) [metconazole], for which the “Observed Efficacy” value worked out at 4% in the experiment with Pyrenophora teres (dose rate 10 ppm); 9% with Pyrenophora teres (dose rate 25 ppm); 34% in the experiment on Pyrenophora teres (dose rate 40 ppm); 68% in the experiment with Pyrenophora teres (dose rate 125 ppm); 73% in the experiment with Pyrenophora teres (dose rate 200 ppm); 0% in the experiment with Septoria tritici [1] (dose rate 2 ppm). Also, the “Observed Efficacy” value in the experiment on Septoria tritici [1] (dose rate 5 ppm) came out at 0%; with Septoria tritici [1] (dose rate 8 ppm) it was 0%; with Septoria tritici [1] (dose rate 10 ppm), 0%; in the experiment on Septoria tritici [1] (dose rate 25 ppm), 0%; in the experiment on Rhynchosporium secalis, 87%; in the experiment on Septoria tritici [3] (Example 34, 19 days after application, dose rate 15 g/ha) it was 9%. Moreover, the “Observed Efficacy” value in the experiment on Septoria tritici [3] (Example 34, 19 days after application, dose rate 30 g/ha) is reported as 36%; in the experiment on Septoria tritici [3] (Example 34, 19 days after application, dose rate 45 g/ha), 24%; in the experiment with Septoria tritici [3] (Example 34, 25 days after application, dose rate 15 g/ha), 33%; in the experiment on Septoria tritici [3] (Example 34, 25 days after application, dose rate 60 g/ha), 48%; in the experiment with Septoria tritici [3] (metconazole 45 g/ha alone, 15 days after application, field, wheat), 77; in the experiment on Puccinia recondita [4], 75. For the same compound, the “Observed Efficacy” value in the experiment on Blumeria graminis stood at 54. The pest or weed control at 2 ppm in the experiment with Puccinia recondita [2] (dose rate 2 ppm) is 0%. For the same compound, the pest or weed control at 8 ppm in the experiment on Puccinia recondita [2] (dose rate 8 ppm) amounted to 0%. In addition, the pest or weed control at 10 ppm in the experiment with Puccinia recondita [2] (dose rate 10 ppm) worked out at 8%. The pest or weed control at 25 ppm in the experiment with Puccinia recondita [2] (dose rate 25 ppm) is 14%. Further, the pest or weed control at 40 ppm in the experiment with Puccinia recondita [2] (dose rate 40 ppm) amounted to 31%. Besides, the pest or weed control at 50 ppm in the experiment with Puccinia recondita [2] (dose rate 50 ppm) was 72%. In addition, the pest or weed control at 125 ppm in the experiment on Puccinia recondita [2] (dose rate 125 ppm) stood at 97%.
As to `Cc1cc(C)nc(Nc2ccccc2)n1` [pyrimethanil], the “Observed Efficacy” value with Botrytis cinerea (dose rate 500 g/ha) came out at 66%.
